In patent US11613527B2, “Enzyme inhibitors” (KalVista Pharmaceuticals Limited, priority 2019, dated 2023):

Key:
Type in all cases: biochemical
Human plasma kallikrein = Human plasma kallikrein (Homo sapiens (Human), UniProt P03952); assay: Determination of the IC50 for plasma kallikrein (fluorogenic substrate H-DPro-Phe-Arg-AFC); conditions: class symbols A-D, read-out: IC50 (human PKal)
Method: The ability of the compounds of formula (I) to inhibit plasma kallikrein may be determined using the following biological assay:
Determination of the IC50 for Plasma Kallikrein
(§1) Plasma kallikrein inhibitory activity in vitro was determined using standard published methods (see e.g. Johansen et al., Int. J. Tiss. Reac. 1986, 8, 185; Shori et al., Biochem. Pharmacol., 1992, 43, 1209; Sturzebecher et al., Biol. Chem. Hoppe-Seyler, 1992, 373, 1025). Human plasma kallikrein (Protogen) was incubated at 25° C. with the fluorogenic substrate H-DPro-Phe-Arg-AFC and various concentrations of the test compound. Residual enzyme activity (initial rate of reaction) was determined by measuring the change in optical absorbance at 410 nm and the IC50 value for the test compound was determined.

Human KLK1 = Human KLK1 (Homo sapiens (Human), UniProt P06870); assay: Determination of the IC50 for KLK1 (fluorogenic substrate H-DVal-Leu-Arg-AFC)
Human KLK1, sequence (P06870 25-262): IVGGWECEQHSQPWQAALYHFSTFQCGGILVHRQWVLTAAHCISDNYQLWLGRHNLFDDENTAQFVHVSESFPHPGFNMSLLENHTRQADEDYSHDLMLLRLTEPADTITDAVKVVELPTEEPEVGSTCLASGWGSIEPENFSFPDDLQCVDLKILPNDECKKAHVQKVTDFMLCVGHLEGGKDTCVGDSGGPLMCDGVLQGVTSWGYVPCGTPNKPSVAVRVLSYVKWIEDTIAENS
Method: Selected compounds were further screened for inhibitory activity against the related enzyme KLK1. The ability of the compounds of formula (I) to inhibit KLK1 may be determined using the following biological assay:
Determination of the IC50 for KLK1
as §1, with “KLK1” for “Plasma kallikrein”, “KLK1 (Callbiochem)” for “plasma kallikrein (Protogen)”, “H-DVal-Leu-Arg-AFC” for “H-DPro-Phe-Arg-AFC”

Human FXIa = Human FXIa (Homo sapiens (Human), UniProt P03951); assay: Determination of the % inhibition for FXIa (fluorogenic substrate Z-Gly-Pro-Arg-AFC; 40 μM or IC50)
Human FXIa, sequence (P03951 388-625): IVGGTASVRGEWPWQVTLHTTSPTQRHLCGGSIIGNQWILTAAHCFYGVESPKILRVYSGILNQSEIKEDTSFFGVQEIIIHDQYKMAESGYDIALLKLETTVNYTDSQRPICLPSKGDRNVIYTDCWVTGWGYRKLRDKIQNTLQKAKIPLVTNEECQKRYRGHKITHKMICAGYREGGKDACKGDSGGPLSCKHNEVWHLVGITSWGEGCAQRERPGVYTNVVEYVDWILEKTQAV
Human FXIa, sequence (P03951 19-387 partner): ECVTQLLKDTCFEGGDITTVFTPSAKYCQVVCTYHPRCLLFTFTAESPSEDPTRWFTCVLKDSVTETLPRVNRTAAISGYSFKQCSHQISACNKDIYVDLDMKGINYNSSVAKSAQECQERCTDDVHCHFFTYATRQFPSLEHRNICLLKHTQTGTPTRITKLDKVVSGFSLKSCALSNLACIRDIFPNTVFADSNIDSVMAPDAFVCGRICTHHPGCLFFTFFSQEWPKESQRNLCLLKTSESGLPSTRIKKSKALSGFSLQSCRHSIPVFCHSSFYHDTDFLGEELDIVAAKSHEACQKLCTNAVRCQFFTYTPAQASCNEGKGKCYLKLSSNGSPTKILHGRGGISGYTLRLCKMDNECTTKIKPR
Method: Selected compounds were further screened for inhibitory activity against the related enzyme FXIa. The ability of the compounds of formula (I) to inhibit FXIa may be determined using the following biological assay:
Determination of the % Inhibition for FXIa
FXIa inhibitory activity in vitro was determined using standard published methods (see e.g. Johansen et al., Int. J. Tiss. Reac. 1986, 8, 185; Shori et al., Biochem. Pharmacol., 1992, 43, 1209; Sturzebecher et al., Biol. Chem. Hoppe-Seyler, 1992, 373, 1025). Human FXIa (Enzyme Research Laboratories) was incubated at 25° C. with the fluorogenic substrate Z-Gly-Pro-Arg-AFC and 40 μM of the test compound (or alternatively at various concentrations of the test compound in order to determine IC50). Residual enzyme activity (initial rate of reaction) was determined by measuring the change in optical absorbance at 410 nm and the IC50 value for the test compound was determined.

Human plasma kallikrein, sequence (P03952 391-638): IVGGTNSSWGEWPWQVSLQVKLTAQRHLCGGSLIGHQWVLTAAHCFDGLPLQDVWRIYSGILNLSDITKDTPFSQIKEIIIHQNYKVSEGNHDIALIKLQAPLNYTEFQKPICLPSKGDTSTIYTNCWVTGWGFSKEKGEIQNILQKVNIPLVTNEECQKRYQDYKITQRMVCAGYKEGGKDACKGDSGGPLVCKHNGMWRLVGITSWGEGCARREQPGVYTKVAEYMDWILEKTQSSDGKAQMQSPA
Human plasma kallikrein, sequence (P03952 20-390 partner): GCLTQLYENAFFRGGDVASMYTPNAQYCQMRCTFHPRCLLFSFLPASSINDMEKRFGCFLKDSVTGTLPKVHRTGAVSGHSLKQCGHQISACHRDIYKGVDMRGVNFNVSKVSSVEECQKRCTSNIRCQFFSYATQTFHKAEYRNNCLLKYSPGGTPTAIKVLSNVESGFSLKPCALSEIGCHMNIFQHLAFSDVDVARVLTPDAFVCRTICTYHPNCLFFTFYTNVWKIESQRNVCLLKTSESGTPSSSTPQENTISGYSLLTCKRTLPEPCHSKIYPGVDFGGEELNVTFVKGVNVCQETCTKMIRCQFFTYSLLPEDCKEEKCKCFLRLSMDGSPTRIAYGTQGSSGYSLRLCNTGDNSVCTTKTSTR

| Compound | IC50 (Human plasma kallikrein) [µM] | IC50 (Human KLK1) [µM] | IC50 (Human FXIa) [µM] |
| --- | --- | --- | --- |
| COCc1nn(Cc2ccc3c(c2)CCN(C2CC2)C3)cc1C(=O)NCc1c(-n2cnc(C(F)(F)F)n2)ccc(OC)c1F [Example 48, 1-[(2-cyclopropyl-3,4-dihydro-1H-isoquinolin-6-yl)methyl]-N-({2-fluoro-3-methoxy-6-[3-(trifluoromethyl)-1,2,4-triazol-1-yl]phenyl}methyl)-3-(methoxymethyl)pyrazole-4-carboxamide] | 0.03 to 0.1 | > 40 | > 40 |
| COCc1nn(Cc2ccc3c(c2)CNC3)cc1C(=O)NCc1c(-n2cc(C)nn2)ccc(OC)c1F [Example 53, 1-(2,3-dihydro-1H-isoindol-5-ylmethyl)-N-{[2-fluoro-3-methoxy-6-(4-methyl-1,2,3-triazol-1-yl)phenyl]methyl}-3-(methoxymethyl)pyrazole-4-carboxamide] | 0.03 to 0.1 | > 4 | > 4 |
| COCc1nn(Cc2cnc3c(c2)CCN(CC(F)F)C3)cc1C(=O)NCc1c(-n2cc(C)nn2)ccc(OC)c1F [Example 115, 1-{[7-(2,2-difluoroethyl)-6,8-dihydro-5H-1,7-naphthyridin-3-yl]methyl}-N-{[2-fluoro-3-methoxy-6-(4-methyl-1,2,3-triazol-1-yl)phenyl]methyl}-3-(methoxymethyl)pyrazole-4-carboxamide] | 0.01 to 0.03 | > 4 | > 4 |
| COCc1nn(Cc2ccc3c(c2)CN(C)CC3)cc1C(=O)NCc1c(-n2cnc(C(F)F)n2)ccc(C(C)(F)F)c1F [Example 157, N-{[3-(1,1-difluoroethyl)-6-[3-(difluoromethyl)-1,2,4-triazol-1-yl]-2-fluorophenyl]methyl}-3-(methoxymethyl)-1-[(2-methyl-3,4-dihydro-1H-isoquinolin-7-yl)methyl]pyrazole-4-carboxamide] | 0.1 to 1 | > 40 | > 40 |
| COc1ccc(-n2cc(C)nn2)c(CNC(=O)c2cn(Cc3cn4c(n3)CN(C)CC4)nc2C(F)(F)F)c1F [Example 61, N-{[2-fluoro-3-methoxy-6-(4-methyl-1,2,3-triazol-1-yl)phenyl]methyl}-1-({7-methyl-5H,6H,8H-imidazo[1,2-a]pyrazin-2-yl}methyl)-3-(trifluoromethyl)pyrazole-4-carboxamide] | 0.03 to 0.1 | > 40 | > 40 |
| COCc1nn(Cc2ccc3c(c2)CN(C)CCO3)cc1C(=O)NCc1c(-n2cc(C)nn2)ccc(OC)c1F [Example 108, N-{[2-fluoro-3-methoxy-6-(4-methyl-1,2,3-triazol-1-yl)phenyl]methyl}-3-(methoxymethyl)-1-[(4-methyl-3,5-dihydro-2H-1,4-benzoxazepin-7-yl)methyl]pyrazole-4-carboxamide] | 0.1 to 1 | > 40 | > 40 |
| COCc1nn(Cc2nc3c(s2)CN(C)CC3)cc1C(=O)NCc1c(-n2cc(C)nn2)ccc(OC)c1F [Example 109, N-{[2-fluoro-3-methoxy-6-(4-methyl-1,2,3-triazol-1-yl)phenyl]methyl}-3-(methoxymethyl)-1-({5-methyl-4H,6H,7H-[1,3]thiazolo[5,4-c]pyridin-2-yl}methyl)pyrazole-4-carboxamide] | 0.1 to 1 | > 40 | > 40 |

Second part, the molecule after the results:

| IC50 (Human plasma kallikrein) [µM] | IC50 (Human KLK1) [µM] | IC50 (Human FXIa) [µM] | Compound |
| --- | --- | --- | --- |
| < 0.01 | > 40 | > 40 | COCc1nn(Cc2ccc3c(c2)CN(C(C)C)C3)cc1C(=O)NCc1c(-n2cnc(C(F)(F)F)n2)ccc(OC)c1F [Example 60, N-({2-fluoro-3-methoxy-6-[3-(trifluoromethyl)-1,2,4-triazol-1-yl]phenyl}methyl)-1-[(2-isopropyl-1,3-dihydroisoindol-5-yl)methyl]-3-(methoxymethyl)pyrazole-4-carboxamide] |
| 0.01 to 0.03 | > 40 | 16.3 | COCc1nn(Cc2ccc3c(c2)CCN(C)C3=O)cc1C(=O)NCc1c(-n2cc(C)nn2)ccc(OC)c1F [Example 135, N-{[2-fluoro-3-methoxy-6-(4-methyl-1,2,3-triazol-1-yl)phenyl]methyl}-3-(methoxymethyl)-1-[(2-methyl-1-oxo-3,4-dihydroisoquinolin-6-yl)methyl]pyrazole-4-carboxamide] |
| < 0.01 | > 40 | 16.3 | CCN1Cc2ccc(Cn3cc(C(=O)NCc4c(-n5cc(C)nn5)ccc(OC)c4F)c(COC)n3)cc2C1 [Example 56, 1-[(2-ethyl-1,3-dihydroisoindol-5-yl)methyl]-N-{[2-fluoro-3-methoxy-6-(4-methyl-1,2,3-triazol-1-yl)phenyl]methyl}-3-(methoxymethyl)pyrazole-4-carboxamide] |
| < 0.01 | > 40 | > 40 | COCc1nn(Cc2ccc3c(c2)CN(C(C)C)C3)cc1C(=O)NCc1c(-n2cnc(C(F)F)n2)ccc(OC)c1F [Example 59, N-({6-[3-(difluoromethyl)-1,2,4-triazol-1-yl]-2-fluoro-3-methoxyphenyl}methyl)-1-[(2-isopropyl-1,3-dihydroisoindol-5-yl)methyl]-3-(methoxymethyl)pyrazole-4-carboxamide] |
| < 0.01 | > 40 | > 40 | CCN1CCc2ccc(Cn3cc(C(=O)NCc4c(-n5cc(C)nn5)ccc(OC)c4F)c(COC)n3)cc2C1 [Example 16, 1-[(2-ethyl-3,4-dihydro-1H-isoquinolin-7-yl)methyl]-N-{[2-fluoro-3-methoxy-6-(4-methyl-1,2,3-triazol-1-yl)phenyl]methyl}-3-(methoxymethyl)pyrazole-4-carboxamide] |
| < 0.01 | > 40 | > 40 | COCc1nn(Cc2ccc3c(c2)CCN(C)CC3)cc1C(=O)NCc1c(-n2cc(C)nn2)ccc(OC)c1F [Example 121, N-{[2-fluoro-3-methoxy-6-(4-methyl-1,2,3-triazol-1-yl)phenyl]methyl}-3-(methoxymethyl)-1-[(3-methyl-1,2,4,5-tetrahydro-3-benzazepin-7-yl)methyl]pyrazole-4-carboxamide] |
| < 0.01 | > 40 | > 40 | COCc1nn(Cc2ccc3c(c2)C2CCCN2CC3)cc1C(=O)NCc1c(-n2cc(C)nn2)ccc(OC)c1F (stereo not drawn) [Example 120, 1-{1H,2H,3H,5H,6H,10bH-pyrrolo[2,1-a]isoquinolin-9-ylmethyl}-N-{[2-fluoro-3-methoxy-6-(4-methyl-1,2,3-triazol-1-yl)phenyl]methyl}-3-(methoxymethyl)pyrazole-4-carboxamide] |
| < 0.01 | > 40 | > 40 | COCc1nn(Cc2ccc3c(c2F)CN(C)CC3)cc1C(=O)NCc1c(-n2cc(C)nn2)ccc(OC)c1F [Example 107, 1-[(8-fluoro-2-methyl-3,4-dihydro-1H-isoquinolin-7-yl)methyl]-N-{[2-fluoro-3-methoxy-6-(4-methyl-1,2,3-triazol-1-yl)phenyl]methyl}-3-(methoxymethyl)pyrazole-4-carboxamide] |
| < 0.01 | > 40 | 34.6 | COc1ccc(-n2cnc(C(F)(F)F)n2)c(CNC(=O)c2cnn(Cc3ccc4c(c3)CN(C)CC4)c2)c1F [Example 31, N-({2-fluoro-3-methoxy-6-[3-(trifluoromethyl)-1,2,4-triazol-1-yl]phenyl}methyl)-1-[(2-methyl-3,4-dihydro-1H-isoquinolin-7-yl)methyl]pyrazole-4-carboxamide] |
| < 0.01 | > 40 | > 40 | COCc1nn(Cc2ccc3c(c2)CN(C)CC3)cc1C(=O)NCc1c(-n2cncn2)ccc(OC)c1F [Example 7, N-{[2-fluoro-3-methoxy-6-(1,2,4-triazol-1-yl)phenyl]methyl}-3-(methoxymethyl)-1-[(2-methyl-3,4-dihydro-1H-isoquinolin-7-yl)methyl]pyrazole-4-carboxamide] |
| 0.01 to 0.03 | > 40 | > 40 | COCc1nn(Cc2ccc3c(c2)CCN(C2CC2)C3)cc1C(=O)NCc1c(-n2ccc(C#N)n2)ccc(OC)c1F [Example 49, N-{[6-(3-cyanopyrazol-1-yl)-2-fluoro-3-methoxyphenyl]methyl}-1-[(2-cyclopropyl-3,4-dihydro-1H-isoquinolin-6-yl)methyl]-3-(methoxymethyl)pyrazole-4-carboxamide] |
